system: SMN protein; assay: cellular SMN ELISA (SMN protein elevation); type: cell-based; conditions: myoblast cell line derived from SMNdelta7 mouse model; 24 hours compound treatment; concentration range 100 pM-10 uM
Procedure: A cellular SMN ELISA was used to measure the effects of low molecular weight compounds on SMN protein elevation. Cells from a myoblast cell line derived from the SMNdelta7 mouse model (kind gift from Steve Burden, NYU) were seeded into a 384-well plate at a density of 3000 cells/well and treated with compounds for 24 hours. ELISA capture plates were prepared by coating 384-well plates (Immulon 4HBX) with 0.5 ug/mL of anti-SMN mAb (BD Science, Catalog number 610647) at 4° C. overnight. The plates were washed 5 times with 110 uL of PBS-Tween (0.05% Tween-20, PBST), blocked with 100 uL of 1% BSA in PBST for 2 hours and washed (5 times) with 100 uL of PBST. After 24 hours of compound treatment cells were lysed in a modified RIPA-buffer, on ice for 1 hour. 20 uL of lysate and 20 uL of 1% BSA were then added to the ELISA capture plates and incubated at 4° C. overnight. Plates were washed (5 times) with PBST and then incubated with 1:100 dilution of primary rabbit anti-SMN polyclonal antibody (Santa cruz, Catalog number SC-15320) at room temperature for 1 hour and subsequently washed (5 times) with 110 uL of PBST. This was followed by addition of 1:100 Goat anti-Rabbit IgG-HRP linked (Cell Signaling, Catalog number 7074) secondary antibody for 1 hour. Plates were then washed with PBST and incubated with 40 uL TMB substrate (Cell Signaling, Catalog number 7004L) at room temperature for 1-10 minutes with shaking. The reaction was stopped by addition of 40 uL of stop solution (Cell signaling, Catalog number 7002L) and absorption was measured at 450 nm. Data was reported as fold activation over DMSO control and EC50. ELISA assay condition: compound concentration range 100 pM-10 uM.

SMILES	EC50	SMN Activity Fold (fold activation over DMSO control)
CN(c1nnc(-c2ccc(-c3ccn(C)c(=O)c3)cc2OC(F)(F)F)s1)C1CC(C)(C)NC(C)(C)C1 [Example 12, 1-Methyl-4-(4-(5-(methyl(2,2,6,6-tetramethyl-piperidin-4-yl)amino)-1,3,4-thiadiazol-2-yl)-3-(trifluoromethoxy)phenyl)pyridin-2(1H)-one]	895 nM	2.20 fold
COc1cc(-c2c(C)n[nH]c2C)ccc1-c1nnc(N(C)C2CC(C)(C)NC(C)(C)C2)s1 [Example 13, 5-(4-(3,5-Dimethyl-1H-pyrazol-4-yl)-2-methoxy-phenyl)-N-methyl-N-(2,2,6,6-tetramethylpiperidin-4-yl)-1,3,4-thiadiazol-2-amine]		inactive
CN(c1nnc(-c2ccc(-c3cnn(C)c3)cc2C(F)(F)F)s1)C1CC(C)(C)NC(C)(C)C1 [Example 14]		inactive
CN(c1nnc(-c2ccc(-c3cnn(C)c3)cc2O)s1)C1CC(C)(C)NC(C)(C)C1 [Example 15, 2-(5-(Methyl(2,2,6,6-tetramethylpiperidin-4-yl)amino)-1,3,4-thiadiazol-2-yl)-5-(1-methyl-1H-pyrazol-4-yl)phenol]	32 nM	3.14 fold
CN(c1nnc(-c2ccc(-c3ccc(=O)n(C)c3)cc2O)s1)C1CC(C)(C)NC(C)(C)C1 [Example 17, 5-(3-Hydroxy-4-(5-(methyl(2,2,6,6-tetramethyl-piperidin-4-yl)amino)-1,3,4-thiadiazol-2-yl)phenyl)-1-methylpyridin-2(1H)-one]	36 nM	2.74 fold
CN(c1nnc(-c2ccc(-c3ccn(C)c(=O)c3)cc2O)s1)C1CC(C)(C)NC(C)(C)C1 [Example 18, 4-(3-Hydroxy-4-(5-(methyl(2,2,6,6-tetramethyl-piperidin-4-yl)amino)-1,3,4-thiadiazol-2-yl)phenyl)-1-methylpyridin-2(1H)-one]	61 nM	3.36 fold
CN(c1nnc(-c2ccc(-c3ccc(O)nc3)cc2O)s1)C1CC(C)(C)NC(C)(C)C1 [Example 19, 5-(3-Hydroxy-4-(5-(methyl(2,2,6,6-tetramethyl-piperidin-4-yl)amino)-1,3,4-thiadiazol-2-yl)phenyl)pyridin-2-ol]	51 nM	2.85 fold
CN(c1nnc(-c2cc3ccc(O)cc3cc2O)s1)C1CC(C)(C)NC(C)(C)C1 [Example 20, 3-(5-(Methyl(2,2,6,6-tetramethylpiperidin-4-yl)amino)-1,3,4-thiadiazol-2-yl)naphthalene-2,7-diol]	48 nM	2.63 fold
Oc1ccc2cc(-c3nnc(N4C[C@H]5CNC[C@H]5C4)s3)c(O)cc2c1 [Example 21, 3-(5-((3aR,6aS)-Hexahydropyrrolo[3,4-c]pyrrol-2(1H)-yl)-1,3,4-thiadiazol-2-yl)naphthalene-2,7-diol]	323 nM	2.66 fold
CN(c1nnc(-c2cc3ccccc3cc2O)s1)C1CC(C)(C)NC(C)(C)C1 [Example 22, 3-(5-(Methyl(2,2,6,6-tetramethylpiperidin-4-yl)amino)-1,3,4-thiadiazol-2-yl)naphthalen-2-ol.HBr]	253 nM	2.70 fold
CN(c1nnc(-c2cc3ccccc3nc2O)s1)C1CC(C)(C)NC(C)(C)C1 [Example 23, 3-(5-(Methyl(2,2,6,6-tetramethylpiperidin-4-yl)amino)-1,3,4-thiadiazol-2-yl)quinolin-2-ol]	231 nM	2.66 fold
CN(c1nnc(-c2cc(-n3cccn3)ccc2O)s1)C1CC(C)(C)NC(C)(C)C1 [Example 24, 2-(5-(Methyl(2,2,6,6-tetramethylpiperidin-4-yl)amino)-1,3,4-thiadiazol-2-yl)-4-(1H-pyrazol-1-yl)phenol]	987 nM	2.28 fold
CN(c1nnc(-c2ccc(-c3cnn(C)c3)cc2Cl)s1)C1CC(C)(C)NC(C)(C)C1 [Example 25, 5-(2-Chloro-4-(1-methyl-1H-pyrazol-4-yl)phenyl)-N-methyl-N-(2,2,6,6-tetramethylpiperidin-4-yl)-1,3,4-thiadiazol-2-amine]	132 nM	2.49 fold
CN(c1nnc(-c2c(O)cc(-c3cnn(C)c3)cc2Cl)s1)C1CC(C)(C)NC(C)(C)C1 [Example 26, 3-Chloro-2-(5-(methyl(2,2,6,6-tetramethylpiperidin-4-yl)amino)-1,3,4-thiadiazol-2-yl)-5-(1-methyl-1H-pyrazol-4-yl)phenol]		2.26 fold
Cn1cc(-c2ccc(-c3nnc(NC4CC(C)(C)NC(C)(C)C4)s3)c(Cl)c2)cn1 [Example 27, 5-(2-chloro-4-(1-methyl-1H-pyrazol-4-yl)phenyl)-N-(2,2,6,6-tetramethylpiperidin-4-yl)-1,3,4-thiadiazol-2-amine]	193 nM	2.48 fold
COc1cc(-c2ncc(C)o2)cc(O)c1-c1nnc(N(C)C2CC(C)(C)NC(C)(C)C2)s1 [Example 28, 3-Methoxy-2-(5-(methyl(2,2,6,6-tetramethylpiperidin-4-yl)amino)-1,3,4-thiadiazol-2-yl)-5-(5-methyloxazol-2-yl)phenol]	20 nM	2.70 fold
COc1cc(-n2cccn2)ccc1-c1nnc(C2=CCNCC2)s1 [Example 29, 2-(2-Methoxy-4-(1H-pyrazol-1-yl)phenyl)-5-(1,2,3,6-tetrahydropyridin-4-yl)-1,3,4-thiadiazole]	879 nM	2.46 fold
Oc1cc(-n2cccn2)ccc1-c1nnc(N2CCNCC2)s1 [Example 30, 2-(5-(piperazin-1-yl)-1,3,4-thiadiazol-2-yl)-5-(1H-pyrazol-1-yl)phenol]	6560 nM	1.98 fold
COc1cc2ncccc2cc1-c1nnc(N(C)C2CC(C)(C)NC(C)(C)C2)s1 [Example 31, 5-(7-Methoxyquinolin-6-yl)-N-methyl-N-(2,2,6,6-tetramethylpiperidin-4-yl)-1,3,4-thiadiazol-2-amine]	113 nM	2.43 fold
CN(c1nnc(-c2cc3cccnc3cc2O)s1)C1CC(C)(C)NC(C)(C)C1 [Example 32, 6-(5-(Methyl(2,2,6,6-tetramethylpiperidin-4-yl)amino)-1,3,4-thiadiazol-2-yl)quinolin-7-ol]	256 nM	2.48 fold
COc1cc(C#N)ccc1-c1nnc(N(C)C2CC(C)(C)NC(C)(C)C2)s1 [Example 33, 3-methoxy-4-(5-(methyl(2,2,6,6-tetramethyl-piperidin-4-yl)amino)-1,3,4-thiadiazol-2-yl) benzonitrile]	1040 nM	2.16 fold
CN(c1nnc(-c2ccc(C#N)cc2F)s1)C1CC(C)(C)NC(C)(C)C1 [Example 34, 3-fluoro-4-(5-(methyl(2,2,6,6-tetramethylpiperidin-4-yl)amino)-1,3,4-thiadiazol-2-yl)benzonitrile]	> 10000 nM	2.32 fold

Source: patent US9040712B2, “Thiadiazole analogs thereof and methods for treating SMN-deficiency-related-conditions” (NOVARTIS AG, priority 2013, dated 2015)
